ChEMBL document CHEMBL4308864, “Targeting tyrosine kinase: Development of acridone - pyrrole - oxindole hybrids against human breast cancer” (2019)

Columns and labels:
Assay type in all cases: functional
[1] = test system: Malme-3M; assay: Growth inhibition of human MALME-3M cells assessed as cell growth at 10^-5 M incubated for 48 hrs by sulforhodamine B assay relative to control; conditions: read-out: Activity
[2] = test system: HCT-116; assay: Growth inhibition of human HCT116 cells assessed as cell growth at 10^-5 M incubated for 48 hrs by sulforhodamine B assay relative to control; conditions: HCT-116, 48 h, read-out: Activity
[3] = test system: DU-145; assay: Growth inhibition of human DU145 cells assessed as cell growth at 10^-5 M incubated for 48 hrs by sulforhodamine B assay relative to control; conditions: DU-145, 48 h, read-out: Activity
[4] = test system: UACC-62; assay: Growth inhibition of human UACC62 cells assessed as cell growth at 10^-5 M incubated for 48 hrs by sulforhodamine B assay relative to control; conditions: UACC-62, 48 h, read-out: Activity
[5] = test system: IGROV-1; assay: Growth inhibition of human IGROV1 cells assessed as cell growth at 10^-5 M incubated for 48 hrs by sulforhodamine B assay relative to control; conditions: IGROV-1, 48 h, read-out: Activity
[6] = test system: Hs-578T; assay: Growth inhibition of human Hs578T cells assessed as cell growth at 10^-5 M incubated for 48 hrs by sulforhodamine B assay relative to control; conditions: read-out: Activity
[7] = test system: HT-29; assay: Growth inhibition of human HT-29 cells assessed as cell growth at 10^-5 M incubated for 48 hrs by sulforhodamine B assay relative to control; conditions: HT-29, 48 h, read-out: Activity
[8] = test system: SF-268; assay: Growth inhibition of human SF268 cells assessed as cell growth at 10^-5 M incubated for 48 hrs by sulforhodamine B assay relative to control; conditions: SF-268, 48 h, read-out: Activity
[9] = test system: SNB-75; assay: Growth inhibition of human SNB75 cells assessed as cell growth at 10^-5 M incubated for 48 hrs by sulforhodamine B assay relative to control; conditions: SNB-75, 48 h, read-out: Activity
[10] = test system: SK-OV-3; assay: Growth inhibition of human SKOV3 cells assessed as cell growth at 10^-5 M incubated for 48 hrs by sulforhodamine B assay relative to control; conditions: SK-OV-3, 48 h, read-out: Activity
[11] = test system: 786-0; assay: Growth inhibition of human 786-0 cells assessed as cell growth at 10^-5 M incubated for 48 hrs by sulforhodamine B assay relative to control; conditions: 786-0, 48 h, read-out: Activity
[12] = test system: PC-3; assay: Growth inhibition of human PC3 cells assessed as cell growth at 10^-5 M incubated for 48 hrs by sulforhodamine B assay relative to control; conditions: PC-3, 48 h, read-out: Activity
[13] = test system: TK-10; assay: Growth inhibition of human TK10 cells assessed as cell growth at 10^-5 M incubated for 48 hrs by sulforhodamine B assay relative to control; conditions: TK-10, 48 h, read-out: Activity
[14] = test system: OVCAR-4; assay: Growth inhibition of human OVCAR4 cells assessed as cell growth at 10^-5 M incubated for 48 hrs by sulforhodamine B assay relative to control; conditions: OVCAR-4, 48 h, read-out: Activity
[15] = test system: HCC 2998; assay: Growth inhibition of human HCC2998 cells assessed as cell growth at 10^-5 M incubated for 48 hrs by sulforhodamine B assay relative to control; conditions: HCC 2998, 48 h, read-out: Activity
[16] = test system: M14; assay: Growth inhibition of human M14 cells assessed as cell growth at 10^-5 M incubated for 48 hrs by sulforhodamine B assay relative to control; conditions: M14, 48 h, read-out: Activity
[17] = test system: SN12C; assay: Growth inhibition of human SN12C cells assessed as cell growth at 10^-5 M incubated for 48 hrs by sulforhodamine B assay relative to control; conditions: read-out: Activity
[18] = test system: A549; assay: Growth inhibition of human A549/ATCC cells assessed as cell growth at 10^-5 M incubated for 48 hrs by sulforhodamine B assay relative to control; conditions: A549, 48 h, read-out: Activity
[19] = test system: HL-60(TB); assay: Growth inhibition of human HL-60(TB) cells assessed as cell growth at 10^-5 M incubated for 48 hrs by sulforhodamine B assay relative to control; conditions: HL-60, 48 h, read-out: Activity
[20] = test system: NCI-H522; assay: Growth inhibition of human NCI-H522 cells assessed as cell growth at 10^-5 M incubated for 48 hrs by sulforhodamine B assay relative to control; conditions: NCI-H522, 48 h, read-out: Activity
[21] = test system: HCT-15; assay: Growth inhibition of human HCT15 cells assessed as cell growth at 10^-5 M incubated for 48 hrs by sulforhodamine B assay relative to control; conditions: HCT-15, 48 h, read-out: Activity
[22] = test system: MDA-MB-468; assay: Growth inhibition of human MDA-MB-468 cells at 10^-5 M incubated for 48 hrs by sulforhodamine B assay relative to control; conditions: MDA-MB-468, 48 h, read-out: GI
[23] = test system: SK-MEL-28; assay: Growth inhibition of human SK-MEL-28 cells assessed as cell growth at 10^-5 M incubated for 48 hrs by sulforhodamine B assay relative to control; conditions: SK-MEL-28, 48 h, read-out: Activity
[24] = test system: SK-MEL-2; assay: Growth inhibition of human SK-MEL-2 cells assessed as cell growth at 10^-5 M incubated for 48 hrs by sulforhodamine B assay relative to control; conditions: SK-MEL-2, 48 h, read-out: Activity
[25] = test system: MOLT-4; assay: Growth inhibition of human MOLT4 cells assessed as cell growth at 10^-5 M incubated for 48 hrs by sulforhodamine B assay relative to control; conditions: MOLT-4, 48 h, read-out: Activity
[26] = test system: OVCAR-5; assay: Growth inhibition of human OVCAR5 cells assessed as cell growth at 10^-5 M incubated for 48 hrs by sulforhodamine B assay relative to control; conditions: OVCAR-5, 48 h, read-out: Activity
[27] = test system: NCI-H460; assay: Growth inhibition of human NCI-H460 cells assessed as cell growth at 10^-5 M incubated for 48 hrs by sulforhodamine B assay relative to control; conditions: NCI-H460, 48 h, read-out: Activity
[28] = test system: A498; assay: Growth inhibition of human A498 cells assessed as cell growth at 10^-5 M incubated for 48 hrs by sulforhodamine B assay relative to control; conditions: A498, 48 h, read-out: Activity
[29] = test system: ACHN; assay: Growth inhibition of human ACHN cells assessed as cell growth at 10^-5 M incubated for 48 hrs by sulforhodamine B assay relative to control; conditions: read-out: Activity
[30] = test system: LOX IMVI; assay: Growth inhibition of human LOXIMVI cells assessed as cell growth at 10^-5 M incubated for 48 hrs by sulforhodamine B assay relative to control; conditions: read-out: Activity
[31] = test system: CCRF-CEM; assay: Growth inhibition of human CCRF-CEM cells assessed as cell growth at 10^-5 M incubated for 48 hrs by sulforhodamine B assay relative to control; conditions: read-out: Activity
[32] = test system: U-251; assay: Growth inhibition of human U251 cells assessed as cell growth at 10^-5 M incubated for 48 hrs by sulforhodamine B assay relative to control; conditions: U-251, 48 h, read-out: Activity

Structure (SMILES) | growth at 10 µM [1] | growth at 10 µM [2] | growth at 10 µM [3] | growth at 10 µM [4] | growth at 10 µM [5] | growth at 10 µM [6] | growth at 10 µM [7] | growth at 10 µM [8] | growth at 10 µM [9] | growth at 10 µM [10] | growth at 10 µM [11] | growth at 10 µM [12] | growth at 10 µM [13] | growth at 10 µM [14] | growth at 10 µM [15] | growth at 10 µM [16] | growth at 10 µM [17] | growth at 10 µM [18] | growth at 10 µM [19] | growth at 10 µM [20] | other results
O=C1Nc2ccccc2/C1=C/c1cccn1CCCCn1c2ccccc2c(=O)c2ccccc21 | 91.9% | 74.2% | 94.2% | 51.8% | 77.3% | 86.3% | 89.1% | 83.1% | 78% | 94.6% | 97% | 55.1% | 104% | 65.8% | 40.5% | 85.1% | 97.9% | 86.3% | 60.2% | 68.4% | growth at 10 µM [21]: 31.7%; inhibition of growth at 10 µM [22]: 49%; growth at 10 µM [23]: 105%; growth at 10 µM [24]: 84%; growth at 10 µM [25]: 47.7%; growth at 10 µM [26]: 77.9%; growth at 10 µM [27]: 93.7%; growth at 10 µM [28]: 109%; growth at 10 µM [29]: 76.3%; growth at 10 µM [30]: 82.5%; growth at 10 µM [31]: 52.8%; growth at 10 µM [32]: 95.1%
O=C1/C(=C\c2cccn2CCCCn2c3ccccc3c(=O)c3ccccc32)c2ccccc2N1c1c(Cl)cccc1Cl | 106% | 98.4% | 111% | 82.1% | 110% | 103% | 110% | 94% | 91.9% | 105% | 103% | 78.9% | 108% | 78.3% | 46.7% | 96% | 101% | 93% | 106% | 90% | growth at 10 µM [21]: 83.5%; inhibition of growth at 10 µM [22]: 28%; growth at 10 µM [23]: 111%; growth at 10 µM [24]: 105%; growth at 10 µM [25]: 93.8%; growth at 10 µM [26]: 104%; growth at 10 µM [27]: 104%; growth at 10 µM [28]: 116%; growth at 10 µM [29]: 99.5%; growth at 10 µM [30]: 98.1%; growth at 10 µM [31]: 103%; growth at 10 µM [32]: 96%
